Experimental data as given in ChEMBL document CHEMBL1201862, “PubChem BioAssay data set” (2004).
Active and inactive are the calls of the source.

What was measured:
[1] = molecular target: Ubiquitin carboxyl-terminal hydrolase BAP1 (Homo sapiens, UniProt Q92560); assay: inhibition of BAP1 ubiquitin hydrolase activity – biochemical, dose response (AID 714); assay type: functional
[2] = HCT116 cell viability decrease, GSK3B pretreatment – CellTiter-Glo, IC50, dose response (AID 1117339); assay type: functional; conditions: HCT-116
[3] = CellTiter-Glo luminescence survival assay, SW480 colon tumor line, concentration-response curve, half-maximal inhibitory concentration (AID 1117338); assay type: functional
[4] = RKO cell viability reduction, dose response, CellTiter-Glo luminescence (AID 1117322); assay type: functional
[5] = rise of 4N DNA cells, HeLa – IC50, dose response (AID 1117351); assay type: functional, cell-based
[6] = cytotoxicity toward HCT116 cells – cell-based, CellTiter-Glo luminescence, IC50, dose response (AID 1117332); assay type: functional; conditions: HCT-116
[7] = cytotoxicity toward Colo320 cells – cell-based, CellTiter-Glo luminescence, IC50, dose response (AID 1117334); assay type: functional; conditions: COLO 320
[8] = SNU-C1 cell viability reduction, dose response, CellTiter-Glo luminescence (AID 1117323); assay type: functional, cell-based
[9] = Reduced DLD-1 viability, concentration-response, CellTiter-Glo luminescence (AID 1117352); assay type: functional
[10] = rise of 2N DNA cells, HeLa – IC50, dose response (AID 1117349); assay type: functional, cell-based
[11] = cytotoxicity toward HT-29 cells – cell-based, CellTiter-Glo luminescence, IC50, dose response (AID 1117330); assay type: functional
[12] = molecular target: T1, SUMO-activating enzyme (Homo sapiens, UniProt Q9UBT2); assay: blockers of SAE1/SAE2–UBC9 SUMO transfer – biochemical, HTRF, uHTS, primary screen (AID 2006); assay type: protein-complex assay
T1 sequence (Q9UBE0 whole entry): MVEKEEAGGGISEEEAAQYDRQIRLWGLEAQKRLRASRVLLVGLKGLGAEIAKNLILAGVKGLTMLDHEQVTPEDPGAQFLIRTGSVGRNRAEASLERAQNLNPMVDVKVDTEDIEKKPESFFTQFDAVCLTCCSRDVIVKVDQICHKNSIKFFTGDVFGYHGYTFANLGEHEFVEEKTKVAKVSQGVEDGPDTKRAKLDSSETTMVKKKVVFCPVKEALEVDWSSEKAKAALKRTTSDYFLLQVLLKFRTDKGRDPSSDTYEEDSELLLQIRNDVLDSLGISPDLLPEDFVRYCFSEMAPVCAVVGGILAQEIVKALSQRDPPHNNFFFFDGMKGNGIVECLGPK
T1 sequence (Q9UBT2 whole entry): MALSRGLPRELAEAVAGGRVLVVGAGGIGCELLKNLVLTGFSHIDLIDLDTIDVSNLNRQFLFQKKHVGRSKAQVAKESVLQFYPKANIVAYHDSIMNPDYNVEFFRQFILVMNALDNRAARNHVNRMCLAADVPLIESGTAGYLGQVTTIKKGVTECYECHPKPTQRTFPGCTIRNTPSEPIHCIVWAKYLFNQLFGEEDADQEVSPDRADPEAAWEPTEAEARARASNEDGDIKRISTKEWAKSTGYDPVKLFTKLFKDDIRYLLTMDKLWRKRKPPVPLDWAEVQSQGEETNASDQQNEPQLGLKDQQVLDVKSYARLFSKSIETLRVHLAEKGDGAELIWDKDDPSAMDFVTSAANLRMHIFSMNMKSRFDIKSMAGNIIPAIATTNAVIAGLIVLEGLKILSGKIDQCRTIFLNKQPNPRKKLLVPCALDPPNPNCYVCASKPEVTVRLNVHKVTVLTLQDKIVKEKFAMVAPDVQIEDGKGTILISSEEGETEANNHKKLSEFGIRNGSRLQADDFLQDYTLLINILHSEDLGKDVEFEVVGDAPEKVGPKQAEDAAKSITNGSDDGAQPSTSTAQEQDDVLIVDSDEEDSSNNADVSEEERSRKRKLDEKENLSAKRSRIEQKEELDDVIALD

[13] = molecular target: T1, SUMO-activating enzyme; assay: blockers of UBC9-mediated SUMO conjugation – biochemical, AlphaScreen, SUMOylation inhibitor project, confirmation (AID 2018); assay type: functional
[14] = molecular target: fMet-Leu-Phe receptor (Homo sapiens, UniProt P21462); assay: formyl peptide receptor binders – dose response (AID 519); assay type: functional
fMet-Leu-Phe receptor, sequence (P21462 whole entry): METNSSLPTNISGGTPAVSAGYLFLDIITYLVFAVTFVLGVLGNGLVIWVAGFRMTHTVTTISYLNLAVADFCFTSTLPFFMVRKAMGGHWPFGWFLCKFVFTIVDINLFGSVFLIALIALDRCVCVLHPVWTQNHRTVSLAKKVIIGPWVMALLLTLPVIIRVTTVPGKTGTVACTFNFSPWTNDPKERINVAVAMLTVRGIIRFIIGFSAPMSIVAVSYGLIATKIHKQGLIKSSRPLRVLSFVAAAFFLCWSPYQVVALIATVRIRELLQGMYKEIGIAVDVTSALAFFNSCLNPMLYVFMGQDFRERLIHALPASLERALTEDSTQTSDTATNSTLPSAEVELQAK

[15] = molecular target: T2, Bcl-2-related protein A1 (Mus musculus, UniProt Q07440); assay: small-molecule antagonists of Bfl-1/BH3 interaction – biochemical, TR-FRET, mouse Bfl-1, confirmation (AID 621);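 further: TR-FRET binding of GST-Bfl-1 to FITC-labelled Bid peptide via terbium antibody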
T2 sequence (Q07440 whole entry): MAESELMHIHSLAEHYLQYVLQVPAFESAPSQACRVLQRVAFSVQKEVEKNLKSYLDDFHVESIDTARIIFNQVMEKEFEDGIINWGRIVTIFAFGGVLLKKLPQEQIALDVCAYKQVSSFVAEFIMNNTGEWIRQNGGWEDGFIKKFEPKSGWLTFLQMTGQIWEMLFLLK

[16] = molecular target: T2, Bcl-2-related protein A1; assay: displacement of Bid BH3 peptide from Bfl-1 – biochemical, fluorescence polarization, FITC-Bid, mouse, primary screen (AID 432)
[17] = molecular target: T3, Replicative DNA helicase DnaB (Mycobacterium tuberculosis, UniProt P9WMR3); assay: DnaB intein splicing inhibitors, dose response, biochemical, cell-free fluorescence (AID 449749); assay type: functional
T3 sequence (P9WMR3 whole entry): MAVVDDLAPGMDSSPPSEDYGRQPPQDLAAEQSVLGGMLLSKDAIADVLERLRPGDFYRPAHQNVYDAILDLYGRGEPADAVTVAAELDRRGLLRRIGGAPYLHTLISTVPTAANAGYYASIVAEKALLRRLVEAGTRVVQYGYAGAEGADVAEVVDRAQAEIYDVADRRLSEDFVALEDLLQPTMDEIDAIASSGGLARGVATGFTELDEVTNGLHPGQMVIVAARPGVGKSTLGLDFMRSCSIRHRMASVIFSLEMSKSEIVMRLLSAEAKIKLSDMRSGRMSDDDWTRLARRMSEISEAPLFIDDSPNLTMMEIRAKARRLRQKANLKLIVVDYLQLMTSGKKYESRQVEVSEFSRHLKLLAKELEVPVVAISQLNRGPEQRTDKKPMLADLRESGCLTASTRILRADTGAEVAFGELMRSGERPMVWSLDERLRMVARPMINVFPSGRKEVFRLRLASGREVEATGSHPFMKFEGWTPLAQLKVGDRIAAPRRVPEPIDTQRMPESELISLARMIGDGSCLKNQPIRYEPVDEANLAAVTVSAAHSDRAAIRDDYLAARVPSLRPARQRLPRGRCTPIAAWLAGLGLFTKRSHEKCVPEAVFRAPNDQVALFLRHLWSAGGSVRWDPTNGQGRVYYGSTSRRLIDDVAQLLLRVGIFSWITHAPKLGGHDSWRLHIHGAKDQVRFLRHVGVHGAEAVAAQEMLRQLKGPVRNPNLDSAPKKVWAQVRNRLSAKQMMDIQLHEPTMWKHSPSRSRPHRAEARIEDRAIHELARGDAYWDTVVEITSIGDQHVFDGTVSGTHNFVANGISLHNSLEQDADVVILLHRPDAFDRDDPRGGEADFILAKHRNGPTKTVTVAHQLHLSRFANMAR

[18] = molecular target: T4, Protein RecA (Mycobacterium tuberculosis, UniProt P9WHJ3); assay: Fluorescence Cell-Free Homogeneous Dose Retest to Identify Inhibitors of RecA-Intein Splicing Activity. [Related pubchem assays (depositor defined):AID2097, AID2223, AID489010, AID492950]; assay type: functional
T4 sequence (P9WHJ3 whole entry): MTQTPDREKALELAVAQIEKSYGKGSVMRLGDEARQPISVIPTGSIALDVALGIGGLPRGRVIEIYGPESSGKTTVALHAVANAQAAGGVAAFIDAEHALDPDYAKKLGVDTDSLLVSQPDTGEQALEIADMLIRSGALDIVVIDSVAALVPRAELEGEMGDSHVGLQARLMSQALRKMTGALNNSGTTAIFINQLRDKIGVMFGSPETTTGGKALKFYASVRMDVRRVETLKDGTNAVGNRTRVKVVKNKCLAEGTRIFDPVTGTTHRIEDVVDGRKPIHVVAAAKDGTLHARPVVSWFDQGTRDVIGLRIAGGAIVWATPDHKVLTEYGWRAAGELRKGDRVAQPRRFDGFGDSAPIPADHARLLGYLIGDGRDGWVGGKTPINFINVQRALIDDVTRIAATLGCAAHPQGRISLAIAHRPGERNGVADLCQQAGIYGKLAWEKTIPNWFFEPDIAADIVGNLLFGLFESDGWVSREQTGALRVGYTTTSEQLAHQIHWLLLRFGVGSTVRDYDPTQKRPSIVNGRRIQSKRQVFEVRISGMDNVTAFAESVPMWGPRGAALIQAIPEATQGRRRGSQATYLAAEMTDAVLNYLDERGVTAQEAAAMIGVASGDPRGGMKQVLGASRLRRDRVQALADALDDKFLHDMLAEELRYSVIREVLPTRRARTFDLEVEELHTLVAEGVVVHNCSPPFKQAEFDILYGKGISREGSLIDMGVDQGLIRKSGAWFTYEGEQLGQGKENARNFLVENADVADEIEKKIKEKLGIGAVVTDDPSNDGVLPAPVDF

[19] = molecular target: Muscarinic acetylcholine receptor M5 (Homo sapiens, UniProt P08912); assay: potentiation of ACh response at human M5 – cell-based, concentration-response curve, dose response (AID 651878); assay type: functional
Muscarinic acetylcholine receptor M5, sequence (P08912 whole entry): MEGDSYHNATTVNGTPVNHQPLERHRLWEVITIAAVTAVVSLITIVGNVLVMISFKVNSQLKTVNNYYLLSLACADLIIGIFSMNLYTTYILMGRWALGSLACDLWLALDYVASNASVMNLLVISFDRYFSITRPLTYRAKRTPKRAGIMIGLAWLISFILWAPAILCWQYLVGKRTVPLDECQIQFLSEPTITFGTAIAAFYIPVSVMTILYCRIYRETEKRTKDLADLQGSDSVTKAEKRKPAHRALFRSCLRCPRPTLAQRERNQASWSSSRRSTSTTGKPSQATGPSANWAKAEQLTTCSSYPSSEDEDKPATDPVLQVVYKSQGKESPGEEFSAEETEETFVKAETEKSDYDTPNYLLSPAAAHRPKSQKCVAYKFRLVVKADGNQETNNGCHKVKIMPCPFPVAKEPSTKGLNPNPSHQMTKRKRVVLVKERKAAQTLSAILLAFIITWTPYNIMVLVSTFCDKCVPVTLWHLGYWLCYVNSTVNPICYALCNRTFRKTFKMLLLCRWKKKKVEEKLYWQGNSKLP

[20] = dual-tagged ARNT PAS-B bead signal quenchers – biochemical, dry powder, artefact control for ARNT/TACC3 disruptor project, dose response (AID 720564)
[21] = system: Streptococcus sp. 'group A'; assay: Streptococcus pyogenes SK(-)GAS viability under kanamycin – luminescence, BacTiterGlo, confirmation, counter-screen for streptokinase expression inhibitor project, dose response (AID 1900); assay type: functional, organism-based
[22] = ATP-based viability loss in HEK293T cells – cell-based, CellTiter-Glo luminescence, dry powder, set 2, cytotoxicity control, dose response (AID 720595); assay type: functional; conditions: HEK293
[23] = system: Streptococcus; assay: GAS UMAA2166 growth inhibition – luminescence, BacTiterGlo, counter-screen for streptokinase expression inhibitor project, dose response (AID 1915); assay type: functional, organism-based;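 further: potency for reduction of bacterial viability or growth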
[24] = ATP-based viability loss in HepG2 cells – cell-based, CellTiter-Glo luminescence, dry powder, set 3, cytotoxicity control, dose response (AID 720594); assay type: functional
[25] = molecular target: T5, Streptokinase A (Streptococcus pyogenes serotype M1, UniProt P10520); assay: viability-normalized secreted streptokinase activity reduction – plasminogen activation absorbance, OD405, dose response (AID 1914); assay type: functional, Streptococcus pyogenes M1 GAS;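 further: secreted streptokinase activity via plasminogen activation per viability signal from cell pellet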
T5 sequence (P10520 whole entry): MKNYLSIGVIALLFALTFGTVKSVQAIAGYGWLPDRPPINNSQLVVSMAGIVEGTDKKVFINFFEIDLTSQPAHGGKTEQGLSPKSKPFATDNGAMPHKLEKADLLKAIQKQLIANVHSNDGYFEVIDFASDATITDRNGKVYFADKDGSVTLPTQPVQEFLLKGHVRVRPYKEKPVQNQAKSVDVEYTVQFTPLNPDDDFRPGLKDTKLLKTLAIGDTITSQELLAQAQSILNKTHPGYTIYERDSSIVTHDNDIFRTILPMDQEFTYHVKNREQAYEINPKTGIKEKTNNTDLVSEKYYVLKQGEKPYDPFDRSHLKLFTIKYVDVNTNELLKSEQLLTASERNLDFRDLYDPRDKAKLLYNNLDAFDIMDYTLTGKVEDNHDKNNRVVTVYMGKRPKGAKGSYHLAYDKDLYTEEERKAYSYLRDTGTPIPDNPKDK

Ubiquitin carboxyl-terminal hydrolase BAP1, sequence (Q92560 whole entry): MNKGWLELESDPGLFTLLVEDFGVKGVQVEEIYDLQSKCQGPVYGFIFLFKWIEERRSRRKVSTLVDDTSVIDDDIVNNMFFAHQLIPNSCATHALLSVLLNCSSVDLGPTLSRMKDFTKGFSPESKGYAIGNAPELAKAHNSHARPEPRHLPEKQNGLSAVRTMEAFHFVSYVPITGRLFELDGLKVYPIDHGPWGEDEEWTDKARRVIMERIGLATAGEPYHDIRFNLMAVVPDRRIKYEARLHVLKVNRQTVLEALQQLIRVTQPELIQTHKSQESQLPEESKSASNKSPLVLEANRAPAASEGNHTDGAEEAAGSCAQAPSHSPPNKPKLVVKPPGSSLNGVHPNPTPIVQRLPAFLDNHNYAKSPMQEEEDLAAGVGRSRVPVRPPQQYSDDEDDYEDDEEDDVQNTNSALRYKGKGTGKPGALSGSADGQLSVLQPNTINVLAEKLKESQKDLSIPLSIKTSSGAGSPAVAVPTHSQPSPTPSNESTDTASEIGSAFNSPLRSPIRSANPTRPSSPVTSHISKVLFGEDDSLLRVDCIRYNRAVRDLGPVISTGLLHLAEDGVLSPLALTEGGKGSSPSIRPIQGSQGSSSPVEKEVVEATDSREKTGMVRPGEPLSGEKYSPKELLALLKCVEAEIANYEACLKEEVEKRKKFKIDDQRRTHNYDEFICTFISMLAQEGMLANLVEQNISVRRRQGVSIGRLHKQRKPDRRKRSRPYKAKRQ

## Cc1sc(NC(=O)CSc2nnc(-c3ccccc3)o2)c(C#N)c1C
[1]
  IC50: 44.8 µM (not active)

## O=C(c1cc(O)c(O)c(O)c1)c1ccc(O)c(O)c1O [EXIFONE]
[2]
  IC50: 0.0691 µM (active)
[3]
  IC50: 9.95 µM (inactive)
[4]
  IC50: 0.192 µM (active)
[5]
  IC50: > 10 µM (inactive)
[6]
  IC50: 16.3 µM (inactive)
[7]
  IC50: 9.38 µM (inactive)
[8]
  IC50: 12.8 µM (inactive)
[9]
  IC50: 11.9 µM (inactive)
[10]
  IC50: > 10 µM (inactive)
[11]
  IC50: 9.45 µM (inactive)

## Cc1ccccc1Nc1cc2ccccc2c(O)n1
[12]
  IC50: 4.3 µM (active)
[13]
  IC50: 1.84 µM (active)
[14]
  Ki: > 66.7 µM (inactive)
[15]
  IC50: > 100 µM (not active)
[16]
  IC50: 22.4 µM (active)
[17]
  AC50: 41.9 µM (inconclusive)
[18]
  EC50: 0.616 µM (active)

## O=C1C(=O)N(CCCOc2ccccc2)c2ccc(OC(F)(F)F)cc21
[19]
  EC50: 1.97 µM (active)

## CC1CCCN(S(=O)(=O)c2ccc(C(=O)Nc3nnc(C4=COCCO4)o3)cc2)C1 (stereo not given)
[20]
  AC50: 101 µM (active)
[21]
  EC50: 4.77 µM (active)
[22]
  AC50: 27.6 µM (active)
[23]
  EC50: 98.4 µM (active)
[24]
  AC50: > 52 µM (inactive)
[25]
  EC50: > 150 µM (not active)
